14 compounds from patent US20050124607A1, “5-Substituted quinazolinone compounds useful as alpha 1A/B adrenergic receptor antagonists” (priority 2003, published 2005) can be followed below.

Structures can show the parent of a compound that is named as a salt. Bounds are passed on as bounds.

As to `COc1cc2c(cc1OC)CN(c1nc(=O)c3c(C)c(OC)c(OC)cc3[nH]1)CC2` (as salt: HCl) [Example 121, 2-(6,7-Dimethoxy-3,4-di-hydro-1H-isoquinolin-2-yl)-6,7-di-methoxy-5-meth-yl-1H-quinazolin-4-one], the melting point (commonly the temperature, or range, at which the solid turns liquid) lay in the range of 260 to 268 °C. The figure for `COC[C@@H]1CCCN1CCC1CCN(c2nc(=O)c3c(C)c(OC)c(OC)cc3[nH]2)CC1` [Example 51, 6,7-Dimethoxy-2-{4-[2-((S)-2-meth-oxymethyl-pyr-rolidin-1-yl)-ethyl]-pipe-ridin-1-yl}-5-meth-yl-1H-quinazolin-4-one] is 83.1 to 110.9 °C; for `COc1cc2[nH]c(N3CCCC3c3cccc(N4CCN=C4C)c3)nc(=O)c2c(OC)c1OC` (centres unmarked) [Example 138, 5,6,7-Trimethoxy-2-{2-[3-(2-meth-yl-4,5-di-hydro-imidazol-1-yl)-phe-nyl]-pyrrolidin-1-yl}-1H-quina-zolin-4-one] it is 205.1 to 209.1 °C. The compound `COc1cc2c(cc1OC)CN(c1nc(=O)c3c(F)c(OC)c(OC)cc3[nH]1)CC2` [Example 133, 2-(6,7-Dimethoxy-3,4-di-hydro-1H-isoquino-lin-2-yl)-5-fluoro-6,7-di-methoxy-1H-quina-zolin-4-one] gave a melting point of 260.8 to 269 °C. As for `CCN(C)Cc1ccc2c(c1)CN(c1nc(=O)c3c(OC)c(OC)c(OC)cc3[nH]1)CC2` [Example 1, 2-{7-[(Ethyl-methyl-ami-no)-methyl]-3,4-di-hydro-1H-isoquinolin-2-yl}-5,6,7-tri-methoxy-1H-quina-zolin-4-one], the melting point fell in the range of 161.4 to 163.9 °C.

As to `COc1cc2[nH]c(N3CCc4c(cccc4N=C4N(C)CCN4C)C3)nc(=O)c2c(OC)c1OC`, the melting point lay within 215 to 217.5 °C. The result for `COc1cc2[nH]c(N3CCc4c(cccc4/N=C(\C)N(C)C)C3)nc(=O)c2c(C)c1OC` [Example 98, N′-[2-(6,7-Dimethoxy-5-meth-yl-4-oxo-1,4-di-hydro-quinazolin-2-yl)-1,2,3,4-tetra-hydro-iso-quinolin-5-yl]-N,N-di-methyl-acetamidine] reads 270.9 to 273.5 °C; that for `COc1cc2[nH]c(N3CCc4c(ncnc4N4CCOCC4)C3)nc(=O)c2c(C)c1OC` [Example 136, 6,7-Dimethoxy-5-meth-yl-2-(4-morpholin-4-yl-5,8-di-hydro-6H-py-rido[3,4-d]pyrimidin-7-yl)-1H-quina-zolin-4-one], greater than 300 °C; that for `COc1cc2[nH]c(N3CCC(CCn4ccnc4N)CC3)nc(=O)c2c(OC)c1OC`, 252.4 to 253.2 °C. The figure for `CCN(C)Cc1ccc2c(c1)CN(c1nc(=O)c3c(C)c(OC)c(OC)cc3[nH]1)CC2` [Example 2, 2-{7-[(Ethyl-methyl-ami-no)-methyl]-3,4-di-hydro-1H-isoquinolin-2-yl}-6,7-di-methoxy-5-meth-yl-1H-quinazolin-4-one] is 189.4 to 204.6 °C; for `CNCc1ccc2c(c1)CN(c1nc(=O)c3c(OC)c(OC)c(OC)cc3[nH]1)CC2` [Example 4, 5,6,7-Trimethoxy-2-(7-meth-ylaminomethyl-3,4-di-hydro-1H-isoquino-lin-2-yl)-1H-quina-zolin-4-one] it is 178.1 to 180.9 °C; for `COc1cc2[nH]c(N3CCC(Cc4cccc(C(=O)O)c4)CC3)nc(=O)c2c(OC)c1OC` [Example 79, 3-[1-(5,6,7-Trimethoxy-4-oxo-1,4-di-hydro-quina-zolin-2-yl)-pipe-ridin-4-ylmethyl]-benzoic acid] it is 245 to 249 °C. With `COc1cc2c(cc1OC)CN(c1cc(=O)c3cc(Cl)c(Cl)cc3[nH]1)CC2` [Example 7, 6,7-Dichloro-2-(6,7-di-methoxy-3,4-dihydro-1H-iso-quinolin-2-yl)-1H-quino-lin-4-one], the melting point fell in the range of 266 to 271 °C. The figure for `COc1cc2c(cc1OC)CN(c1nc(=O)c3c(OC)c(OC)c(OC)cc3[nH]1)CC2` (as salt: HCl) [Example 104, 2-(6,7-Dimethoxy-3,4-di-hydro-1H-isoquinolin-2-yl)-5,6,7-tri-methoxy-1H-quinazolin-4-one] is 267 to 270 °C.
